Measurements published in patent US10617749B1, “Composition of matter and methods for alteration of dendritic cell metabolism to augment cancer vaccine efficacy” (Duke University, priority 2016, dated 2020).
Entries after “also recorded” stand apart in the source; their conditions may differ.

Columns and labels:
[1] = system: bone marrow-derived DCs (BMDCs); test: DC oxygen consumption rate (OCR) / OXPHOS, extracellular flux analysis; type: cell-based, murine; conditions: murine DCs pre-treated with Wnt5a vs Wnt5a+ETO
Procedure: (§1) DC energy metabolism was measured using the XF^e24 extracellular flux analyzer (Seahorse Bioscience), with the glycolysis stress test kit and the mitochondrial stress test kit as previously described (Everts et al., 2014; Zhao and Klimecki, 2015).
(§2) Murine bone marrow-derived DCs (BMDCs) were harvested and differentiated as previously described and purified using CD11c microbeads (Miltenyi Biotec) according to manufacturer's protocol. DC purity was monitored by flow cytometry and consistently found to be >95% CD11c+F4/80-. BRAFV600EPTEN−/−-Wnt5aKD and BRAFV600EPTEN−/−-NTC cell lines were generated and cultured as previously described. DC2.4, a murine dendritic cell line was kindly provided by Dr. Kenneth L. Rock (University of Massachusetts Medical School), and cultured as previously described. DC2.4β-cateninKD, DC2.4-CPT1AKD, and DC2.4-NTC stable cell lines were generated using a β-catenin-targeted, CPT1A-targeted, or control shRNA-expressing lentivirus followed by puromycin selection. DCs were treated with Wnt3a (100 ng/mL), Wnt5a (200 ng/mL), LPS (1 μg/mL), 1-MT, 2DG (1 mM), or ETO (100 µM) vs vehicle control either for 24 or 48 hrs prior to their use in both in vitro and in vivo experiments.

[2] = system: human monocyte-derived DCs; test: OCR analysis of human monocyte-derived DCs; type: cell-based; conditions: human DCs pre-treated with Wnt5a 48 hours, short-term ETO
Procedure: Human DCs were differentiated from harvested peripheral blood mononuclear cells and pre-treated with Wnt5a 48 hours prior to OCR analysis. Short-term incubation with ETO was performed prior to analysis.
as §1
Human Monocyte-derived Dendritic Cells were generated as previously described.

BMDCs = test: DC viability, Annexin V/PI flow cytometry; type: cell-based, murine; conditions: BMDCs treated 48 hours
Source text: Data is representative of two-independent experiments.

[3] = system: DC-induced CD4+ FoxP3+ Tregs; test: In vitro Treg assay; type: cell-based, mouse
Procedure: (§3) In vivo Treg assay. DCs (C57, H-2^b) were pre-treated for 48 hours and delivered by intradermal injection into the footpad of Foxp3-mRFP mice. Draining inguinal and popliteal lymph nodes were resected 5 days later and analyzed for CD4^+ Foxp3^+ Tregs. In vitro Treg assay, DCs (Balb/c, H-2^d) were pre-treated for either 24 or 48 hrs, and re-plated at a 1:3 DC:T-cell ratio with purified naïve Foxp3-mRFP(H-2^b) CD4^+ Tcells. These co-cultures were incubated for 6 days and quantitated for CD4^+ FoxP3^+ Tregs by flow cytometry.
as §2

[4] = system: DC-induced CD4+ Foxp3+ Tregs in draining lymph nodes; test: In vivo Treg assay; conditions: conditioned primary DCs transferred into footpad of FoxP3-mRFP reporter mice
Procedure: as §3

OT-1 CD8+ T cells = test: T cell proliferation assay; type: cell-based, mouse; conditions: SIINFEKL-loaded BMDCs co-incubated with OT-1 splenocytes
Procedure: Splenocytes of OT-1 mice (H-2^b) were isolated and stained with CellTrace Violet (ThermoFisher). Preconditioned DCs were loaded with ovalbumin peptide SIINFEKL, and co-cultured at a DC:splenocyte ratio of 40,000:120,000 cells for 72 hrs. CD8+ T cell proliferation was measured by the dilution of Cell Trace Violet dye by flow cytometry.

DC IDO = test: IDO enzymatic assay (kynurenine HPLC); type: cell-based, mouse
Procedure: DC IDO enzyme activity was measured by the conversion of L-tryptophan to L-kynurenine in conditioned media by HPLC (Pallotta et al., 2011). Intracellular hemin levels were measured using a colorimetric assay kit (BioVision).

murine DCs = test: qrt-PCR / ELISA gene and cytokine expression in murine DCs; type: cell-based; conditions: BMDCs, qrt-PCR
Procedure: Total RNA was isolated by RNeasy Plus Mini Kit(Qiagen). RNA(500 ng) was used in cDNA Synthesis (iScript, BioRad). Quantification of mRNA for genes involved in PPARγ signaling was performed using Mouse PrimePCR PPAR Array according to the manufacturer's protocol (BioRad). Real-time PCR was performed using an ABI7500 Real-Time PCR system (Life Technologies). Data analysis utilized the PrimePCR Analysis Software (BioRad). Conventional qPCR was performed using validated primers (Table 1) and SsoAdvanced Universal SYBR Green Super mix (BioRad) or Taqman probes (Applied Biosystems) for heme synthesis enzymes.
Murine IL-6 (eBioscience) and IL-12p40 (Becton Dickinson) ELISAs were performed according to manufacture's protocol.

[5] = system: BRAFV600EPTEN−/− melanoma; test: Syngeneic transplant tumor study; type: in vivo, C57BL/6 mice
Procedure: Mouse IFNγ ELISPOTPLUS (MABTECH) was performed according to manufacture guidelines. Imaging was conducted using a ChemiDoc System (BioRad) and quantified using ImageJ software.
Paraffin-embedded tissues were processed and stained following standard protocols and imaged with a Zeiss CLSM 700 confocal microscope. CD8 (BioLegend) and PD-L1 (Abcam) primary antibodies were utilized where indicated. Warp Red chromogen detection system (BioCare) was used for antigen visualization.
BRAFV600EPTEN−/− cells line were established as previously described. 5×10^5 cells were implanted by subcutaneous injection into syngeneic C57 mice. Tumor growth was monitored by caliper measurement. Etomoxir (Sigma, ETO) was administered daily by oral gavage (25 mg/kg/day). Anti-PD-1 rat mAb or rat IgG2a isotype control (BioXCell) was delivered every 3 days by intraperitoneal injection (250 μg/dose).

[6] = system: autochthonous BRAFV600EPTEN−/− melanoma; test: Autochthonous tumor study with adoptively transferred pretreated DCs; type: in vivo, transgenic mice
Procedure: B6.Cg-Braftm1Mmcm Ptentm1Hwu Tg(Tyr-cre/ERT2 H-2b)13Bos/BosJ (BRAFV600EPTEN−/−, H-2b), transgenic mice were subdermally injected with 4-HT (Sigma, 38.75 μg/mice) to induce primary melanoma development. Three days prior to 4-HT injection, 1×10^6 cells DCs pretreated with Wnt5a+/−ETO were washed and delivered by intra-dermal injection into the hind leg foot pads every 3-4 days until the conclusion of the experiment. Melanoma growth was monitored by orthagonal caliper measurements every 3-4 days between day 15 to day 32.

BRAFV600EPTEN−/− cells = test: Soft agar colony formation assay; type: cell-based, mouse; conditions: 15 days in presence or absence of ETO
Procedure: Complete growth media—0.7% agar was overlaid with complete growth media—[…] containing 10,000 cells and additional complete growth media. After 2 weeks, colonies were stained with MTT(Sigma) to identify viable colonies and imaged by a ChemiDoc XRSplus system as previously described. Images were analyzed with NIH ImageJ to enumerate colony number.

CPT1a = CPT1a silencing by shRNA-expressing lentiviral vector (qrt-PCR, Western blot); type: cell-based, mouse
Source text: The application includes the sequence listing that is concurrently filed in computer readable form. This sequence listing is incorporated by reference herein.
as §2, with “experiments. […]” for “experiments.”
Total RNA was isolated by RNeasy Plus Mini Kit(Qiagen). […] Quantification of mRNA for genes involved in PPARγ signaling was performed using Mouse PrimePCR PPAR Array according to the manufacturer's protocol (BioRad). […]

[7] = DCs pretreated with Wnt5a+/−ETO

Row | Compound | Wnt5a-induced DC OXPHOS / mitochondrial respiration (OCR) [1] | Wnt5a-induced DC mitochondrial respiration (OCR) [2] | DC viability (BMDCs) | DC-mediated Treg differentiation in vitro, IDO−/− DCs ([3]; DCs derived from IDO−/− mice +/−ETO) | DC-mediated Treg differentiation in vitro ([3]; pre-treated DCs co-cultured with naïve CD4+ T cells) | DC-mediated Treg differentiation in vivo [4] | DC-mediated antigen-specific CD8+ T cell proliferation (OT-1 CD8+ T cells) | TIDC IDO enzyme activity (kynurenine) (DC IDO; TIDCs purified from BRAFV600E-PTEN−/−-NTC tumors) | DC IDO enzymatic activity (kynurenine) (DC IDO; purified DC cultures, Wnt5a or Wnt5a+ETO) | IL-6 and IL-12 expression in primary DCs (murine DCs) | primary melanoma growth, ETO combined with anti-PD-1 antibody ([5]; ETO 25 mg/kg/day oral gavage plus anti-PD-1 250 μg/dose i.p. every 3 days) | primary melanoma progression, monotherapy ([5]; ETO 25 mg/kg/day oral gavage, anti-PD-1 250 μg/dose i.p. every 3 days) | Tregs within draining LN tissues [6, 7] | melanoma-infiltrating CD8+ T cells [6, 7] | primary melanoma progression ([6]; DCs pretreated with Wnt5a+/−ETO transferred to foot pads) | intrinsic proliferative capacity of tumor cells (soft agar colonies) (BRAFV600EPTEN−/− cells) | silencing of mouse CPT1a expression (CPT1a)
1 | CCOC(=O)[C@@]1(CCCCCCOc2ccc(Cl)cc2)CO1 [ETO, etomoxir] | ablate Wnt5a-induced DC OXPHOS; also recorded: completely ablate Wnt5a induction of both murine and human DC mitochondrial respiration; also recorded: abrogates Wnt5a-induced DC OXPHOS | completely ablate Wnt5a induction of both murine and human DC mitochondrial respiration | does not impair DC viability; also recorded: not impacting DC viability | dramatically suppress the ability of IDO^−/− DCs to drive Treg differentiation; also recorded: inhibition of DC-mediated Treg generation extends beyond IDO activity | ablate; also recorded: potently suppress the ability of Wnt5a-conditioned DCs to drive Treg differentiation; also recorded: inhibits Wnt5a-conditioning of DC-mediated Treg development in vitro | ablate; also recorded: potently suppress the ability of Wnt5a-conditioned DCs to drive Treg differentiation; also recorded: inhibits Wnt5a-conditioning of DC-mediated Treg development in vivo | significantly augment in vitro DC-dependent T cell proliferation to levels similar to that of LPS stimulation; also recorded: potently induce DC-mediated T cell activation to levels similar to those seen in response to LPS-treatment of DCs; also recorded: enhances the ability of DCs to induce OT-1 T cell proliferation | lower levels of IDO enzyme activity | completely eliminated this effect; also recorded: reverses Wnt5a-stimulation of DC IDO enzymatic activity | alterations in cytokine expression were further recapitulated | significantly enhanced the anti-tumor efficacy of the anti-PD-1 antibody; also recorded: augments anti-PD-1 antibody suppression | suppresses the progression of BRAF^V600E-PTEN^−/− melanoma similar to anti-PD-1 antibody monotherapy | suppression of Tregs within draining LN tissues | enhanced numbers of melanoma-infiltrating CD8+ T cells | potently suppress primary melanoma progression | has no impact on the intrinsic proliferative capacity of this tumor model | –
2 | SEQ ID NO:1: shRNA sequence for silencing mouse CPT1a (guide CCGGGCTATGGTGTTTCCTACATTACTCGAGTAATGTAGGAAACACCATAGCTTTTTG) | – | – | – | – | – | – | – | – | – | – | – | – | – | – | – | – | effective for silencing the expression of mouse CPT1a
